Laboratory results as given in patent publication US12427140B2, “4-[5-[(rac)-1-[5-(3-chlorophenyl)-3-isoxazolyl]ethoxy]-4-methyl-4H-1,2,4-triazol-3-yl]pyridine for use in prevention and/or treatment of pain in an animal” (priority 2019, dated 2025).

Assays:
[1] = cited from earlier work
[2] = Dissolution of TT001 in I.V. formulation vehicle; format: physicochemical; settings: 0.1 to 10 mg/ml in 40% w/v HPβCD solution in water for injection; a couple of hours for complete dissolution
Method: Formulation Method for the Preparation of TT001 for I.V. Dosing, 0.1 to 10 mg/ml
The formulation method is applicable at concentrations in formulation between 0.1 and 10 mg/mL corresponding to 0.262 and 26.2 μmol/mL
Preparation of 40% w/v HPβCD solution in water for injection
Excipients Hydroxypropyl-β-cyclodextrin, Kleptose, Roquette (HPβCD) 400 mg (40% w/v)
Water for injection to 1 ml (1.13 g)
Preparation of TT001 I.V. formulations between 0.1 and 10 mg/ml
Vehicle (40% w/v HPβCD solution in water for injection) to 1 ml (1.13 g)

[3] = Adverse effect on kidneys; settings: in vivo
[4] = test system: pain in dogs with chronic osteoarthritis; settings: cited from earlier work

**Q.** What does the source list for `C[C@@H](Oc1nnc(-c2ccncc2)n1C)c1cc(-c2cccc(Cl)c2)on1` [TT001, 4-[5-[(1R)-1-[5-(3-Chlorophenyl)-3-isoxazolyl]ethoxy]-4-methyl-4H-1,2,4-triazol-3-yl]pyridine]?
**A.** effect on TLESR/reflux ([1]; high dose of 13 mg (about 0.19 mg/kg), 2 to 3 hours after food-intake): some effect; side effects ([1]; high doses of 13 mg): Some serious side effects; effect on reflux ([1]; prior to food intake and at 1-2 hours after food intake): no significant effect; dissolution [2]: moderate; adverse effect on kidneys [3]: not shown any adverse effect on kidneys

**Q.** With `COc1cccc(C2(O)CCCCC2CN(C)C)c1` (stereo not drawn) [Tramadol] as the molecule, how does the “pain killer effect in dogs” value [4] read?
**A.** The value was “do not occur”.
